Data taken from the supplement of paper PMC8967900.

How the values were obtained:
Assay in all cases: selective drug sensitivity score (sDSS, relative to normal bone marrow) (sDSS (score)); higher = more potent and effective on the cell line relative to normal bone marrow cells
Conditions in all cases: 72 h
380 = tested on: 380
697 = tested on: 697
ALL-SIL = tested on: ALL-SIL
COG-LL-319h = tested on: COG-LL-319h
COG-LL-355h = tested on: COG-LL-355h
DND-41 = tested on: DND-41
HPB-ALL = tested on: HPB-ALL
JURKAT = tested on: JURKAT
KASUMI-2 = tested on: KASUMI-2
LC4-1 = tested on: LC4-1
MHH-CALL-2 = tested on: MHH-CALL-2
MHH-CALL-3 = tested on: MHH-CALL-3
MOLT-16 = tested on: MOLT-16
NALL-1 = tested on: NALL-1
NALM-16 = tested on: NALM-16
P30-OHKUBO = tested on: P30-OHKUBO
REH = tested on: REH
SUP-B15 = tested on: SUP-B15
TANOUE = tested on: TANOUE
TMD5 = tested on: TMD5
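Also: ALL cell lines in 384-well plates, five doses spanning 10,000-fold, each plate scaled between vehicle and 100 µmol/L benzalkonium chloride controls, sDSS an adapted area-under-curve metric.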

SMILES | selective drug sensitivity score 380 | selective drug sensitivity score 697 | selective drug sensitivity score (ALL-SIL) | selective drug sensitivity score (COG-LL-319h) | selective drug sensitivity score (COG-LL-355h) | selective drug sensitivity score (DND-41) | selective drug sensitivity score (HPB-ALL) | selective drug sensitivity score (JURKAT) | selective drug sensitivity score (KASUMI-2) | selective drug sensitivity score (LC4-1) | selective drug sensitivity score (MHH-CALL-2) | selective drug sensitivity score (MHH-CALL-3) | selective drug sensitivity score (MOLT-16) | selective drug sensitivity score (NALL-1) | selective drug sensitivity score (NALM-16) | selective drug sensitivity score (P30-OHKUBO) | selective drug sensitivity score (REH) | selective drug sensitivity score (SUP-B15) | selective drug sensitivity score (TANOUE) | selective drug sensitivity score (TMD5)
C#Cc1cccc(Nc2ncnc3cc(OCCOC)c(OCCOC)cc23)c1 [Erlotinib] (top concentration 10000 nM) | 2.36 | 5.86 | 5.36 | 16.2 | 3.46 | -1.24 | 0.66 | 2.26 | 3.96 | 8.66 | 1.76 | 1.66 | 4.36 | -1.24 | -1.24 | 2.96 | -0.84 | 8.96 | -1.24 | -0.34
O=C(Nc1nc2cccc(-c3ccc(CN4CCS(=O)(=O)CC4)cc3)n2n1)C1CC1 [Filgotinib] (top concentration 10000 nM) | 11.7 | 0.06 | -0.24 | -3.74 | 0.96 | 1.66 | -1.34 | -1.34 | -0.74 | -1.94 | 5.36 | 1.26 | 4.86 | 5.86 | -5.34 | 2.56 | 1.16 | -0.64 | -5.34 | 0.16
C[C@H]1C=C2C(=O)O[C@H]3CC[C@@H](C1)[C@@]23O [Galiellalactone] (top concentration 25000 nM) | 13 | 3.26 | 5.56 | 7.46 | 3.66 | 3.86 | 5.16 | 1.66 | -0.44 | 7.16 | 4.16 | 11.4 | 3.36 | -4.54 | 6.06 | 5.26 | 3.66 | 3.46 | -0.94 | 1.46
CN(C)C1CCN(C(=O)c2ccc(NC(=O)Nc3ccc(-c4nc(N5CCOCC5)nc(N5CCOCC5)n4)cc3)cc2)CC1 [Gedatolisib] (top concentration 1000 nM) | 14.8 | 11.3 | 2.66 | -0.04 | 4.16 | 4.46 | -0.04 | 2.66 | 7.56 | 3.06 | 3.26 | -1.64 | 15.9 | 1.16 | 1.46 | 15.2 | 9.16 | 8.36 | -1.04 | 0.66
Nc1ccn([C@@H]2O[C@H](CO)[C@@H](O)C2(F)F)c(=O)n1 [Gemcitabine] (top concentration 1000 nM) | 23.5 | 21 | 12.1 | 20.5 | 7.16 | 9.26 | 0.96 | 9.16 | 15.1 | 16.7 | 21.6 | 13.4 | 21.5 | 10.3 | 8.06 | 18 | 13 | 17.1 | -7.34 | -7.84
COc1cc2c(cc1-c1c(C)noc1C)ncc1[nH]c(=O)n([C@H](C)c3ccccn3)c12 [I-BET151] (top concentration 10000 nM) | -7.44 | 9.36 | -2.14 | 10.7 | 1.86 | 0.86 | 1.36 | 0.36 | -2.94 | 7.26 | 6.96 | 14.3 | 5.96 | -0.14 | 2.06 | 7.16 | -2.24 | 5.96 | -2.84 | -3.54
O=C1CCc2c(Oc3ccc4c(c3)[C@@H]3[C@H](O4)[C@H]3c3nc4cc(C(F)(F)F)ccc4[nH]3)ccnc2N1 [Lifirafenib (BGB-283)] (top concentration 10000 nM) | 0.98 | 6.68 | 30 | -0.52 | 4.78 | 1.18 | 0.98 | 5.28 | 1.98 | 3.28 | 4.88 | 0.68 | 3.98 | 8.28 | -0.02 | 5.28 | 3.48 | 17 | 0.48 | 15.9
NC(=O)N1CCC(CC(=O)N2CCC([C@H]3c4ncc(Br)cc4CCc4cc(Cl)cc(Br)c43)CC2)CC1 [Lonafarnib] (top concentration 100000 nM) | -1.06 | 7.54 | 9.34 | 7.04 | 9.34 | 4.54 | 9.84 | 5.74 | 6.14 | 3.44 | 9.24 | 4.54 | 11.2 | 1.54 | 4.04 | 7.84 | 8.04 | 11.9 | -3.96 | -3.36
